Test results: patent US7307171B2, “Materials and methods for inhibiting fouling of surfaces exposed to aquatic environments” (priority 2003, dated 2007)
Read-outs that look alike come from different tables or passages of the source.

Key:
[1] = system: barnacle (Balanus amphitrite) cyprid larvae; assay: Barnacle cyprid larval 24 hour settlement inhibition assay; type: in vivo; conditions: for anti-settlement activity (in words): barnacle larval settlement; for IC50: cyprid larvae, 24 hr exposure, probit analysis, interval in parentheses; for Inhibition Pot/Paralytic Pot: ratio of relative settlement inhibition potency to relative crayfish paralytic potency; for Barnacle Larvae Settlement Rel. Pot: relative to 2,3′-BP = 100; for Barnacle Larvae Settlement % Inhib: single concentration, three separate experiments, spread in parentheses
Source text: (§1) While the cypris larval stage was used in settlement tests, the second naupliar larval stage was used in toxicity tests. Great care was taken to ensure that the free bases completely dissolved in aged sea water solutions previously filtered to remove particles >than 100 kDa. This was accomplished by diluting (by immediate and thorough vortexing) a 3×10^−2 Molar solution of the free base in methanol at least 1,000-fold into the filtered sea water. Diluted aqueous solutions of the compounds were not refrigerated and were used within an hour of preparation.

[2] = system: barnacle second naupliar larval stage; assay: Barnacle naupliar larval 24 hour toxicity (mortality) assay; type: in vivo, Balanus amphitrite; conditions: 24 hr mortality, interval in parentheses, read-out: Barnacle Larvae Lethal Median Conc. LC50
Source text: as §1
(§2) All six possible unsubstituted bipyridyls were also tested.

[3] = as above; type: in vivo, Balanus amphitrite; conditions: Balanus amphitrite, in vivo, other: larvae exposed in sea water solution of the compound; second naupliar stage, 24 hr mortality; interval in parentheses; read-out: Barnacle Larvae Lethal Median Conc. LC50
Source text: as §1, §2

[4] = system: crayfish Procambarus clarkii; conditions: for Crayfish Acute Paralytic Dose PD50: Table 1, no footnote, P. clarkii, injected into haemocoele, paralysis at 15 min; for fold less toxic/paralytic than 2,3′-BP in crayfish: injected into crayfish, compared with 2,3′-BP; for Crayfish Paralysis Rel. Pot: relative to 2,3′-BP = 100; for Crayfish Paralysis PD50: Table 2, no footnote, paralysis 15 min after injection; for crayfish paralytic activity (in words): crayfish paralysis assay
Experimental: Each alkaloid, dissolved in 0.9% sodium chloride containing 10 mM Tris buffer (pH 7.4), was injected into the haemocoele which surrounds the heart. Dose per unit weight was kept constant by injecting a variable volume, 0.10 ml per 10 g fresh weight. Paralysis was measured 15 minutes after injection by measuring the animal's ability, after being placed on its back, to right itself within a 2-minute period. Although the convulsive paralytic effect of the bipyridyls reached a peak about 2-minutes after injection, paralysis could be more conveniently measured 15 minutes after injection. Generally, the same number (10-20) of crayfish were injected at each dose, and the dose interval was kept constant. Before the assay, crayfish were tested to ascertain that they could right themselves within a one minute period.
Animals initially develop tremors, then flex their legs, repeatedly flip their tails, then fall on their side in a tonic convulsion within 2-5 minutes after injection. Recovery is appreciable within 15 minutes, the time selected as most convenient for evaluating groups of 5 animals rapidly injected one after another.

[5] = system: crayfish Procambarus clarkii; conditions: cited from earlier work; for Crayfish Paralysis PD50: Table 2 footnote 1: published previously (Kem, Soti 2001)
[6] = Table 1 footnote 2: published previously, P. clarkii from Louisiana (Kem, Soti 2001)
[7] = Table 1 footnote 1: published previously, P. clarkii from California (Kem 1976)

| Molecule | anti-settlement activity (in words) [1] | IC50 ([1]; Amphibalanus amphitrite) [µM] | LC50 at 24 h [3] [µM] | Inhibition Pot/Paralytic Pot [1] | Barnacle Larvae Settlement Rel. Pot [1] | Barnacle Larvae Settlement % Inhib [1] | Crayfish Paralysis Rel. Pot [4] | further results |
| --- | --- | --- | --- | --- | --- | --- | --- | --- |
| Clc1cccnc1-c1cccnc1 [3-Chloro-2,3′-BP, reference compound] | inability of the 3-chloro-2,3′-BP to inhibit settlement at 100 μM | – | – | – | – | – | – | IC50 [1]: > 100 µM; LC50 [2]: > 50 µM |
| c1ccc(-c2ccccn2)nc1 [2,2′-BP, 2,2′-bipyridyl] | – | 7 | 4.4 | – | – | – | – | Crayfish Acute Paralytic Dose PD50 [4]: >100 µg; fold less toxic/paralytic than 2,3′-BP in crayfish [4]: at least 50 fold |
| Cc1cccnc1-c1cccnc1 [3-Me2,3′-BP, 3-Methyl-2,3′-bipyridyl] | – | – | – | 2.1 | 63 | 34 (13) % | 30 | Crayfish Paralysis PD50 [5]: 59^1 μg |
| c1cncc(-c2cccnc2)c1 [3,3′-BP, 3,3′-bipyridyl] | – | > 100 | 10 | – | – | – | – | Crayfish Acute Paralytic Dose PD50 [4]: 17 µg |
| Cc1ccnc(-c2cccnc2)c1 [4-Me2,3′-BP, 4-Me2,3′-bipyridyl] | – | – | – | 3.1 | 154 | 83 (4) % | 50 | Crayfish Paralysis PD50 [4]: 3.6 µg |
| c1cncc(C2=NCCCN2)c1 [PTHP, 2-(3-pyridyl)-3,4,5,6-tetrahydropyrimidine, reference compound] | relative inactivity | > 100 | > 100 | – | – | – | – | crayfish paralytic activity (in words) [4]: very low paralytic activity; Crayfish Acute Paralytic Dose PD50 [5, 6]: 81^2 μg |
| nemertelline | – | – | – | – | – | – | – | IC50 [1]: 3.2 µM; Crayfish Acute Paralytic Dose PD50 [4]: >120 µg |
| Cc1cncc(-c2ccccn2)c1 [5′-Me2,3′-BP, 5′-Methyl-2,3′-bipyridyl] | – | – | – | 1.8 | 100 | 54 (28) % | 55 | Crayfish Paralysis PD50 [4]: 3.3 µg |
| Cc1ccc(-c2cccnc2)nc1 [5-Me2,3′-BP, 5-methyl-2,3′-bipyridyl] | – | – | – | 0.96 | 176 | 95 (5) % | 184 | Crayfish Paralysis PD50 [4]: 0.98 µg |
| c1cncc([C@@H]2CCCCN2)c1 [Anabasine] | – | 3 | – | – | – | – | – | Crayfish Acute Paralytic Dose PD50 [4]: 3.9 µg |
| 1-methyl-2,3′-BP [1-Methyl-2,3′BP, reference compound] | low anti-settlement activity | – | – | – | – | – | – | IC50 [1]: > 100 µM; LC50 [2]: > 100 µM; crayfish paralytic activity (in words) [4]: very low paralytic activity; Crayfish Acute Paralytic Dose PD50 [5, 6]: >800^2 μg |
| 2-(thienyl)-pyridine [reference compound] | inactivity | – | – | – | – | – | – | IC50 [1]: > 100 µM; LC50 [2]: > 100 µM; Crayfish Acute Paralytic Dose PD50 [5, 6]: 650^2 μg |
| c1cc(-c2ccncc2)ccn1 [4,4′-BP, 4,4′-bipyridyl] | – | > 100 | – | – | – | – | – | – |
| c1ccc(-c2ccncc2)nc1 [2,4′-BP, 2,4′-bipyridyl] | – | > 100 | > 50 | – | – | – | – | Crayfish Acute Paralytic Dose PD50 [4]: >20 µg |
| c1ccc(-c2cccnc2)nc1 [2,3′-BP, 2,3′-Bipyridyl] | – | 4.1 | 1.9 | 1.0 | 100 | 54 (11) % | 100 | Crayfish Paralysis PD50 [4]: 1.8 µg; pKa (physchem): 4.4; Crayfish Acute Paralytic Dose PD50 [5, 7]: 0.88^1 μg; Crayfish Acute Paralytic Dose PD50 [5, 6]: 1.8^2 μg |
| Cc1cccc(-c2cccnc2)n1 [6-Me2,3′-BP, 6-methyl-2,3′-bipyridyl] | – | – | – | 0.27 | 30 | 16 (16) % | 112 | Crayfish Paralysis PD50 [4]: 1.6 µg |
| c1cnc(-c2cccnc2)nc1 [2-(3-pyridyl)-pyrimidine] | – | > 50 | > 50 | – | – | – | – | Crayfish Acute Paralytic Dose PD50 [5, 6]: 2.6^2 μg |
| c1cnc2c(c1)ccc1ncccc12 [1,7-phenanthroline, reference compound] | inactive at a 10-fold higher concentration | > 50 | > 50 | – | – | – | – | crayfish paralytic activity (in words) [4]: low activity; Crayfish Acute Paralytic Dose PD50 [5, 6]: >30^2 μg |
| c1cncc(-c2ccnc(-c3cccnc3)c2)c1 [Nicotelline] | displayed an activity similar to nemertelline | – | – | – | – | – | – | – |
| (S)-anabaseine | inhibited settlement | – | – | – | – | – | – | – |
| Cc1ccncc1-c1ccccn1 [4′-Me2,3′-BP, 4′-Methyl-2,3′-bipyridyl] | – | – | – | 56 | 167 | 90 (10) % | 3 | fold less toxic/paralytic than 2,3′-BP in crayfish [4]: 33 fold; crayfish paralytic activity as % of 2,3′-BP ([4]; relative to 2,3′-BP): 3%; Crayfish Paralysis PD50 [5]: 69^1 μg |
| Cc1ncccc1-c1ccccn1 [2′-Me2,3′-BP, 2′-Me2,3′-bipyridyl] | – | – | – | <0.05 | 0 | 0 (33) % | 1 | Crayfish Paralysis PD50 [5]: 210^1 μg |
| c1cnc2c(c1)ccc1ccncc12 [1,9-phenanthroline] | almost as active as 2,3′-BP | 2 | > 50 | – | – | – | – | Crayfish Acute Paralytic Dose PD50 [5, 6]: 3.0^2 μg |
| Cc1ccc(-c2ccccn2)cn1 [6′-Me2,3′-BP, 6′-Methyl-2,3′-bipyridyl] | – | – | – | 3.7 | 56 | 30 (16) % | 15 | Crayfish Paralysis PD50 [4]: 12 µg |
| c1cncc(-c2ccncc2)c1 [3,4′-BP, 3,4′-bipyidyl] | – | – | – | – | – | – | – | IC50 [1]: > 100 µM; LC50 [2]: > 20 µM; Crayfish Acute Paralytic Dose PD50 [4]: 61 µg |
| c1cncc(C2=NCCCC2)c1 [Anabaseine, anabaseine] | – | 1.2 | 2 | – | – | – | – | crayfish paralytic activity (in words) [4]: slightly less paralytic than 2,3′-BP; fold less toxic/paralytic than 2,3′-BP in crayfish [4]: approximately 4 fold; Crayfish Acute Paralytic Dose PD50 [5, 7]: 3.6^1 μg |
